The text below walks through data of ChEMBL document CHEMBL1136639, “Synthesis and binding affinity of neuropeptide Y at opiate receptors” (Bioorg Med Chem Lett, 2003).

Calls of active or inactive are those of the source. The rule behind the calls is not given here. Starred links: 1 amine or outer side, 2 acyl side, 3 side chain; linkers in the order of their positions; H or OH if unused. Non-standard residues stand in square brackets, D forms with d. Residues, ends and D or L forms follow the SMILES beside them. X1 = NCCCC[C@H](C(=O)[C@H](CO)N[*:1])C(=O)[*:2]

Usually IC50 stands for the concentration needed to halve the response being measured. The term Ki denotes the equilibrium dissociation constant of an inhibitor or competing ligand from its target.

The target in assay [1] is T1, Mu-type opioid receptor (Homo sapiens, UniProt P35372). Description: Inhibitory activity against non-selective opiate receptor.
T1 sequence (P35372 whole entry): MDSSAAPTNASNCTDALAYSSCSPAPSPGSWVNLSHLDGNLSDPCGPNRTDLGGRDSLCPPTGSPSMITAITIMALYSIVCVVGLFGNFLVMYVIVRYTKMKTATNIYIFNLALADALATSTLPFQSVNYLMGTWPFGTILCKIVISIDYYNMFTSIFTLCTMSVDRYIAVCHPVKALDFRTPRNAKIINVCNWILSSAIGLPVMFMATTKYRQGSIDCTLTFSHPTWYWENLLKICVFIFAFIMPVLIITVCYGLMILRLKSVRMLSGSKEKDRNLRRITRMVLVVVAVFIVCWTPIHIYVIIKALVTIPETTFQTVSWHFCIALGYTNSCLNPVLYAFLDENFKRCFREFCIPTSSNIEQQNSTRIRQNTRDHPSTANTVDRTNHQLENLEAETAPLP
In assay [2] the target is T1, Mu-type opioid receptor. As to the kind of experiment: Binding affinity towards non-selective opiate receptor.
Assay [3] has as its target T1, Mu-type opioid receptor. As to the kind of experiment: (§1) Inhibitory activity against non-selective opiate receptor; NA=Not active.
The target in assay [4] is T1, Mu-type opioid receptor. As to the kind of experiment: Binding affinity towards non-selective opiate receptor; NA=Not active.
The target of assay [5] is T1, Mu-type opioid receptor. Described as §1. This is another data set of the same source.

The compound `CC[C@H](C)[C@H](NC(=O)[C@H](Cc1ccc(O)cc1)NC(=O)[C@H](Cc1c[nH]cn1)NC(=O)[C@H](CCCN=C(N)N)NC(=O)[C@H](CC(C)C)NC(=O)[C@H](C)NC(=O)[C@@H](N)CO)C(=O)N[C@@H](CC(N)=O)C(=O)N[C@@H](CC(C)C)C(=O)N[C@H](C(=O)N[C@H](C(=O)N[C@@H](CCCN=C(N)N)C(=O)N[C@@H](CCC(N)=O)C(=O)N[C@@H](CCCN=C(N)N)C(=O)N[C@@H](Cc1ccc(O)cc1)C(=O)O)[C@@H](C)O)[C@@H](C)CC` yielded an IC50 in assay [1] of 10 µM. This compound had a Ki in assay [2] of 5.1 µM.
In the same order, the values of `NCCCC[C@H](C(=O)[C@H](CO)NC(=O)[C@@H]1CCCN1C(=O)[C@@H](N)Cc1ccc(O)cc1)C(=O)N1CCC[C@H]1C(=O)N[C@@H](CC(=O)O)C(=O)O` (H-YP[X1]PD-OH) are 1.8 µM and 1 µM.
Take `NCCCC[C@H](C(=O)[C@H](CO)NC(=O)[C@@H]1CCCN1C(=O)[C@@H](N)Cc1ccc(O)cc1)C(=O)N1CCC[C@H]1C(=O)N[C@@H](CC(=O)O)C(=O)N[C@@H](CC(N)=O)C(=O)N1CCC[C@H]1C(=O)O` (H-YP[X1]PDNP-OH): in assay [3], the IC50 entry was “Not Active”. The Ki entry in assay [4] is on record as “Not Active”.
`NC(=O)[C@@H]1CCCN1C(=O)[C@H](Cc1ccccc1)NC(=O)[C@@H]1CCCN1C(=O)[C@@H](N)Cc1ccc(O)cc1` [MORPHICEPTIN] (H-YPFP-NH2) had an IC50 in assay [1] of 0.32 µM. Moreover, the affinity in assay [2], expressed as Ki, was 0.15 µM.
For H-FPSKP-OH, 15 µM corresponded to half-maximal inhibition in assay [1] (IC50). The compound further gave a Ki in assay [2] of 7.5 µM.
Take H-INLITRQRY-OH: the Ki entry in assay [4] is “Not Active”. Besides, in assay [5], the NA entry is “inactive”.
